Data: patent publication US8865237B2, “Method of preparing dialysed extract of fenugreek seeds which induces hypoglycemia, mediated, in part, via stimulation of insulin signaling pathway” (Department of Biotechnology, priority 2006, dated 2014)

Columns and labels:
PKCλ in HepG2 cells = assay: Confocal microscopy analysis of PKC translocation in HepG2 cells; assay type: cell-based, human; conditions: HepG2, pretreatment before extract
Method: Confocal microscopy analysis of PKC translocation in HepG2 cells. HepG2 cells were serum starved for 3 h and were treated with either 100 nmol/l insulin for 10 min or 25 mg/l FSE for 30 min. In some wells, cells were pretreated with pharmacological inhibitors before treating with extract. Cells were washed quickly with cold PBS and fixed by treating with 3% paraformaldehyde in PBS Ph 7.4, for 15 min at room temperature, rinsed with PBS three times and quenched with 1% glycine for 10 min. Cells were permeabilised with 0.025% saponin in PBS, for 5 min, blocked with PBS containing 5% FBS for 1 h at room temperature, incubated with anti-PKC antibody for overnight at 4° C. in PBS oontaining 2.5% FBS. Cells were washed four times for 5 min each with PBS. Cells were then incubated with a flourescein isothoicyanate conjugated anti-rabbit antibody for additional 1 h, washed again and mounted using vectashield (Vector Laboratories, Burlingame, Calif.) for visualization by confocal microscopy. Rabbit IgG was used as an isotype control.
Effect of FSE on PKCλ translocation in 3T3-L1 and RepG2 cells. […] To investigate the link between FSE induced 1R phosphorylation and GLUT4 translocation, translocation of PKCλ was studied in both 3T3-L1 and HepG2. […] Wortmannin and bis-1 decreased the fluorescence associated with the membrane.

[1] = test system: GLUT4 in 3T3-L1 adipocytes; assay: GLUT4 translocation in 3T3-L1 cells (mycGLUT4 ELISA, membrane fractionation); assay type: cell-based
Method: GLUT4 Translocation Assay in GLUT4 Overexpressing Cell lines. CHO clones expressing insulin receptor and GLUT4eGFP protein were plated on a microscopic chamber slide (ICN, Costa Mesa, Calif.), serum starved in DMEM containing 1 mg/ml BSA for 3 h, followed by treatment with 100 nmol/l insulin or 25 mg/l FSE for 10 and 30 min respectively. Treatment was terminated by keeping the slide on ice and washing with cold PBS. Cells were fixed with 3% para-formaldehyde (PF) in PBS for 15 min at room temperature. GLUT4 translocation was investigated by using LSM confocal microscope (Zeiss LSM 510, Heidelberg, Germany). 3T3-L1 expressing mycGLUT4 were grown in 96 well plated then differentiated to adipocytes, serum starved for 3 h and incubated with insulin or FSE for 10 and 30 min respectively. To examine the specificity of the signaling pathway the cells were pretreated with wortmannin (100 nmol/l) or BIS-1 (100 nmol/l) for 20 min and 1 h respectively. […] The optical absorbance of the supernatant was measured at 414 nm. […]
(§1) Effect of FSE on glucose transport in GLUT4 overexpressing cells. […] CHO cells overexpressing insulin receptor as well as GLUT4 were incubated in the presence of various concentrations of FSE for 30 min and glucose transport was measured by determining the rates 2DG uptake. […]

[2] = test system: CHO clones expressing insulin receptor and GLUT4eGFP; assay: Glucose transport (2-DG uptake) in GLUT4 overexpressing CHO cells; assay type: cell-based; conditions: wortmannin 20 min or BIS-1 100 nmol/l 1 h, then extract 30 min
Method: Cell Culture In Vitro Studies. […] For preadipocyte differentiation 80% confluent preadipocytes were cultured for 2 days in differentiation medium (DMEM supplemented with 1 μmol/l insulin, 0.5 mmol/l IBMX, 0.25 μmol/l DEX containing 10% FBS) and for 2 days in DMEM supplemented with 1 μmol/l insulin and 10% FBS. Thereafter the cells were grown for an additional 4-5 days in DMEM containing 10% FBS. Media was changed on every second day without any additional supplements. CHO clones expressing insulin receptor and GLUT4eGFP protein were grown in media supplemented with hygromycin additionally (100 μg/ml). Penicillin (100 units/ml) and streptomycin ([…]) were added routinely to cultures and all cell lines were cultivated at 37° C. in a 5% CO2 enriched humidified atmosphere.
Effect of FSE on glucose transport. […] Protein was estimated and the radioactivity incorporated into cells was quantified by scintillation counting (Packard, Albertville, Minn.). Nonspecific uptake, measured in the presence of 10 μmol/l cytochalasin B, was subtracted from all values. […]
as §1

[3] = test system: PKCλ in 3T3-L1 adipocytes; assay: PKCλ in plasma membrane fraction of 3T3-L1 adipocytes (immunoblotting); assay type: cell-based; conditions: wortmannin 100 nmol/l 20 min, BIS-1 100 nmol/l 1 h
Method: Isolation of plasma membrane fraction and immunoblotting detection of PKCλ and GLUT4 in 3T3-L1 adipocytes. Differentiated 3T3-L1 cells in 100 mm petri dishes were serum starved for 3 h in DMEM supplemented with 0.1% BSA and then treated with 100 nmol/l insulin or […] for 10 min and 30 min respectively. In some cases cells were pre-treated with 100 nmol/l wortmannin, for 20 min or 100 nmol/l BIS-1 for 1 h followed by treatment with extract t for additional 30 min. Plasma membrane fractionation of 3 T3-L1 adipocytes was performed as previously described (28) with slight modifications that 1 mmol/l PMSF, 1 mmol/l Na3VO4 and a cocktail of protease inhibitors were added to the lysis buffers. Equal protein was diluted with 5× Laemmli buffer, electrophoresied by 10% SDS-PAGE and transferred on to a nitrocellulose membrane. The membrane was probed with anti-nPKCλ or anti-GLUT4 antibody.
Effect of FSE on PKCλ translocation in 3T3-L1 and RepG2 cells. […] To investigate the link between FSE induced 1R phosphorylation and GLUT4 translocation, translocation of PKCλ was studied in both 3T3-L1 and HepG2. […] In unstimulated HepG2 cells the immunofluorescence was minimum as visualized by confocal microscopy. […] Wortmannin and bis-1 decreased the fluorescence associated with the membrane.

liver glucokinase (GK) = assay: Liver glucokinase assay in STZ-BALB/cJ mice; assay type: in vivo
Method: BALB/cJ or Swiss albino mice (male, 8-10 week old) were housed under environmentally controlled conditions (22+/−2° C.) with a 12 h light/dark cycle and had free access to standard rodent pellet food and water. Animals were given 5 daily intraperitoneal (IP) injection of freshly prepared STZ (40 mg/kg in 0.5 mol/l sodium citrate pH 4.5) or AXN (50 mg/kg in 0.9% sodium chloride). Ten hours before the experiments, animals were moved to new cages in which no food was available. AXN injected mice that achieved a glucose level of 200-300 mg/dl and STZ injected mice that achieved a glucose level of 275-400 mg/dl were used as hyperglycemic models in this study. Mice were divided into, diabetic control group, insulin group and FSE group (n=5 in each group). Mice were injected (IP) with vehicle (PBS), insulin (1.5 U/kg) or extract (1, 5 or 15 mg/kg). Blood was collected before injection (0 min), 90 and 240 min after the treatments and serum blood glucose levels were estimated. In some experiments STZ-BALB/cJ mice were sacrificed 90 min after the treatments, and the livers were harvested for analysis. In another set of experiments, AXN-induced Swiss albino diabetic mice were injected with PBS or extract for 5 days (n=5). Blood was collected on day 0, 5, 10 and 15 and body weight was monitored on same day. Acidified insulin from bovine pancreas diluted in PBS was used as a positive test compound in all the experiments. All animal experiments have been performed following the requirement of the committee for the Purpose of Control and Supervision of Experiments on Animals (CPCSEA), Government of India, and after permission of the Institute's Animal Care and Use Committee (IACUC).
Glucokinase assay. Liver samples were homogenized in three volumes of ice cold buffer containing 50 mmol/l Tris-HCl, pH 7.4, 300 mmol/l sucrose, 100 mmol/l KCl, 1 mmol/l EDTA 2.5 mmol/1 mercaptoethanol and centrifuged at 12,000×g for 15 min (12). […] GK activity was calculated as the difference between the glucose phosphorylation capacity at 100 and 0.5 mmol/l glucose. […]

[4] = test system: insulin receptor, IRS-1 and p85 subunit of PI3-Kinase in HepG2 cells; assay: Phosphorylation of insulin signaling proteins in HepG2 cells (western blot); assay type: cell-based, human; conditions: HepG2, 25 mg/l FSE or 100 nmol/l insulin
Method: (§2) Effect of FSE on insulin signaling proteins in 3T3-L1 Adipocytes and HepG2 cell lines. Differentiated 3T3-L1 adipocytes or HepG2 cell were serum starved in F-12K medium containing 7 mM glucose and 0.1% BSA for 16 h followed by changing medium to DMEM containing 25 mmol/l glucose and incubated for 1 h. Subsequently the cells were treated with 100 nmol/l insulin or 25 mg/l FSE for 10 min and 30 min respectively. Untreated cells were incubated with PBS. Cells were washed with cold PBS, removed from the plates using a rubber policeman, lysed in lysis buffer (50 mmol/l Tris-HCl pH7.5, 150 mmol/l NaCl, 1% NP-40, 2 mmol/l EGTA, 2 mmol/l Na3VO4, 100 mmol/l Na4P2O7, […], 1 mmol/l PMSF and protease inhibitor cocktail) on ice for 30 min, passed through 261/2G syringe 20 times and finally centrifuged at 15,000×g for 10 min at 4° C. Equal amounts of protein (100 μg) were diluted in 5× Laemmli reducing buffer (250 mmol/l Tris-HCl p 6.8, 10% SDS, 0.5% bromophenol blue, 50% glycerol, 12.5% β-mercaptoethanol) boiled for 5 min at 100° C. and resolved by 8% SDS-PAGE by running proteins below 43 kDa out of the gel. The proteins form the gel were transferred to nitrocellulose membrane using transfer buffer (CAPS buffer pH 10.7 containing 10% methanol) by applying 150 mA current for 2 h. […]

[5] = test system: insulin receptor, IRS-1 and p85 subunit of PI3-Kinase in 3T3-L1 adipocytes; assay: Phosphorylation of insulin signaling proteins in 3T3-L1 adipocytes (western blot); assay type: cell-based; conditions: 3T3-L1, 25 mg/l FSE or 100 nmol/l insulin
Method: as §2

Compound	effect of inhibitors on fluorescence associated with the membrane (PKCλ in HepG2 cells)	effect of inhibitor pretreatment on FSE induced GLUT4 translocation ([1]; wortmannin 100 nmol/l 20 min, BIS-1 100 nmol/l 1 h)	effect of inhibitor pretreatment on FSE stimulated glucose uptake [2]	effect of inhibitor pretreatment on translocation of PKCλ induced by FSE [3]	enhancement of GK activity compared to diabetic control (liver glucokinase (GK); STZ-diabetic BALB/cJ mice, 90 min, FSE 15 mg/kg) [%]	activation of GK compared to control treated animals (liver glucokinase (GK); diabetic animals, 90 min treatment) [fold]	GK activity (liver glucokinase (GK); liver removed 90 min after treatment, insulin 1.5 U/kg or FSE 15 mg/kg) [nmol/min/mg]	enhancement of glucose uptake ([1]; 100 nmol/l insulin, under similar experimental conditions) [fold]	IR-α phosphorylation [4]	IR-α phosphorylation [5]
CN(C)CCCn1cc(C2=C(c3c[nH]c4ccccc34)C(=O)NC2=O)c2ccccc21 [BIS-1]	decreased	masked	abrogated	inhibited						
insulin					460	4.5	690.0	2.5	did not exhibit	did not exhibit
